According to ChEMBL document CHEMBL2074498, “Induction of the multispecific organic anion transporter (cMoat/mrp2) gene and biliary glutathione secretion by the herbicide 2,4,5-trichlorophenoxyacetic acid in the mouse liver” (Biochem J, 1999):

What was measured:
[1] = molecular target: T1, ATP-binding cassette sub-family C member 2 (Mus musculus, UniProt Q8VI47); assay: TP_TRANSPORTER: Western in vivo, liver of CF I mouse; type: functional, organism-based
[2] = molecular target: T1, ATP-binding cassette sub-family C member 2; assay: TP_TRANSPORTER: Northern blot in vivo, liver of CF I mouse; type: functional, organism-based

T1 sequence (Q8VI47 whole entry): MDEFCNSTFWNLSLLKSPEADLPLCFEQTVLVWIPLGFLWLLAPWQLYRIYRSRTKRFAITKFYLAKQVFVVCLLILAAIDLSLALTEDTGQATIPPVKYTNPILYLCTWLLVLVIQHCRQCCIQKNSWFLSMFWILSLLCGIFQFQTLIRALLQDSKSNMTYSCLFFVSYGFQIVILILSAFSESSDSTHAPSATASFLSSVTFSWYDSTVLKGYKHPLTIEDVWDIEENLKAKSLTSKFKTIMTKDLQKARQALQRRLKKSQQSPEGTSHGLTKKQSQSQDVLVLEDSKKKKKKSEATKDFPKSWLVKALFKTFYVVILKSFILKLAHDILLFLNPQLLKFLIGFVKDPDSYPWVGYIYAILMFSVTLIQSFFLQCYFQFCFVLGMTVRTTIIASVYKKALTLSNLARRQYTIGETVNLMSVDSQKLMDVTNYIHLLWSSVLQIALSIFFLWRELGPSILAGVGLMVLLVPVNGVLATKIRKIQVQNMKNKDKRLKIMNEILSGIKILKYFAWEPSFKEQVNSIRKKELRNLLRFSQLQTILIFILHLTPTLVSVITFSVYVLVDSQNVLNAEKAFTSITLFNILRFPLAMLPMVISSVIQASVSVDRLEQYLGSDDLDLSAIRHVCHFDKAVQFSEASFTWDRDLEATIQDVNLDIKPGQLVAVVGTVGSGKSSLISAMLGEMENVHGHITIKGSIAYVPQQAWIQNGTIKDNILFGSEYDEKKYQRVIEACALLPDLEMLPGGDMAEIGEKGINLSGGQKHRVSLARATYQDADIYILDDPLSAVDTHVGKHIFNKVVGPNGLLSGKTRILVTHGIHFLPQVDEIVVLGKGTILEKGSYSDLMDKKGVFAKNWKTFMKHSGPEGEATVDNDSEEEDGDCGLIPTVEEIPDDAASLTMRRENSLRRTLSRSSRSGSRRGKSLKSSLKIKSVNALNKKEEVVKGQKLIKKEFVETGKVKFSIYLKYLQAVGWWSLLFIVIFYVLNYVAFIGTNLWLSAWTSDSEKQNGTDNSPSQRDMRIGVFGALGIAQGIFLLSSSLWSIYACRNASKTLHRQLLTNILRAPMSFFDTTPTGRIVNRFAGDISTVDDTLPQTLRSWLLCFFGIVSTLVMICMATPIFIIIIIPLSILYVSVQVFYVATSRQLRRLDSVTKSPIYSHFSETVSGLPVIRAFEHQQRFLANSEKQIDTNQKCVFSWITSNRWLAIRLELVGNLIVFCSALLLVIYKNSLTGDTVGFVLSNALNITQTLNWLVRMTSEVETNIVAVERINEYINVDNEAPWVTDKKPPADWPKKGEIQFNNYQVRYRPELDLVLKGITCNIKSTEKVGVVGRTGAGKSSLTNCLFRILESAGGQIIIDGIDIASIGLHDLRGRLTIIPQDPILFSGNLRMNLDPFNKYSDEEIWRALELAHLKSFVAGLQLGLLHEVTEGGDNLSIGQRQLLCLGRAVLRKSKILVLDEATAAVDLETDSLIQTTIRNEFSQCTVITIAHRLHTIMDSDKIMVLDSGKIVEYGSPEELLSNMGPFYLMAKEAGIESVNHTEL

SMILES: O=C(O)COc1cc(Cl)c(Cl)cc1Cl [2,4,5-TRICHLOROPHENOXYACETIC ACID]
- Activity [1]: inducer [+]
- Activity [2]: inducer [+]
